Assay results published in patent US5661146A, “Substituted dibenzoxazepine urea compounds, pharmaceutical compositions and methods of use” (G.D. Searle & Co., priority 1995, dated 1997).

Columns and labels:
[1] = target: T1, prostaglandin E2 -induced contractions of segments of guinea pig ileum (Cavia porcellus, UniProt A0A286XHJ6); test: Prostaglandin (PGE) Antagonism Assay (prostaglandin E2-induced contractions of guinea pig ileum segments); conditions: initial test compound concentration 3 micromolar
T1 construct: Segments of ileum about 2 cm long were then cut and mounted in a 10 mL tissue bath; from tissue; host or cells: ileum segments of male albino guinea pigs
T1 sequence (A0A286XHJ6 1-405): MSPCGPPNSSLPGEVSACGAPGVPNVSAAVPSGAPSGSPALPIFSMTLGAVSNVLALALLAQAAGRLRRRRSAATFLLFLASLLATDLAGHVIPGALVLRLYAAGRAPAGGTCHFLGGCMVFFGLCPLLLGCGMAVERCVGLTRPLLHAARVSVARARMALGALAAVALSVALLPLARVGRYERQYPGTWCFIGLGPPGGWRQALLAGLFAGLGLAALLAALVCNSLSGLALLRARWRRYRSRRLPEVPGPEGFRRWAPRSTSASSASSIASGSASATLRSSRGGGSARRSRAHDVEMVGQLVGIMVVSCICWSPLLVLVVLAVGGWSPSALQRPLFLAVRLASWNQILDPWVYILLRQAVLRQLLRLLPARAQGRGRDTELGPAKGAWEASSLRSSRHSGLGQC
Description: The ilea were then quickly removed from the guinea pigs and placed in a modified Tyrode solution, a solution which is known to those skilled in the art, containing one-half of the usual amount of magnesium ions. […] Data for a control prostaglandin E2 dose response curve plotting concentration of prostaglandin E2 versus the intensity of contractions, detected isotonically, was then obtained by experimentally adjusting the dose of the prostaglandin E2 being injected into the tissue bath, in a manner known by those of skill in the art. Solutions or suspensions containing an initial concentration (3 micromolar) of a test compound in modified Tyrode solution ("test solutions/suspensions") were then separately substituted for the control bath solution. Each test solution/suspension was then kept in constant contact with the ileum tissue, except for brief periods to drain the bath in preparation for rinsing with fresh test solution/suspension. A second prostaglandin E2 dose response curve was then generated for prostaglandin E2 in the presence of a test compound.

mice = test: Writhing Assay (PBQ-induced writhing, analgesic activity in mice); type: in vivo, mouse (Charles River male albino mice); conditions: among compounds of the invention tested
Description: The Writhing Assay is one of the most widely-used experimental procedures for measuring the analgesic activity of different narcotic and nonnarcotic analgesic agents, and involves the continuous, chemically-induced pain of visceral origin to an animal, such as a mouse or rat. [Gyires et al., Arch. int. […] Drugs which reduce the number of writhes of the animal appear to restore the normal nociceptive threshold of the animal. […] Charles River male albino mice, weighing 20 to 30 grams, were used in this assay. […] Ten mice which were given saline in place of a test compound of the invention were used as a control group. Five minutes later, each mouse was individually placed into a glass beaker for observation, and the number of writhes occurring during the following ten-minute period was counted. […] The standard initial screening dose of a test compound employed in this assay was 30 mpk […].

SMILES | PGE IN GUINEA PIG ILEUM, dose ratio given as activity word [1] | potency ranking in the Writhing Assay (in words) (mice)
CCN(CC)CCCCCOC(=O)N1Cc2ccccc2Oc2ccc(Cl)cc21 [Example 29, 5-(diethylamino)pentyl 8-chlorodibenz[b,f]-[1,4]oxazepine-10(11H)-carboxylate] | Active | 
COC(=O)[C@H](C)NC(=O)N1Cc2ccccc2Oc2ccc(Cl)cc21 [Example 32, methyl (L)-2R-[[(8-chlorodibenz[b,f][1,4]oxazepine-10-(11H)-yl)carbonyl]amino]propanoate] |  | most potent compound of the invention tested in this assay
